What was measured:
[1] = biological target: T1, Serotonin 3 (5-HT3) receptor (Rattus norvegicus, UniProt P35563+Q9JJ16); assay: pKi value for inhibition of [3H]LY-278584 binding to 5-hydroxytryptamine 3 receptor; assay type: protein-complex assay
T1 sequence (P35563 whole entry): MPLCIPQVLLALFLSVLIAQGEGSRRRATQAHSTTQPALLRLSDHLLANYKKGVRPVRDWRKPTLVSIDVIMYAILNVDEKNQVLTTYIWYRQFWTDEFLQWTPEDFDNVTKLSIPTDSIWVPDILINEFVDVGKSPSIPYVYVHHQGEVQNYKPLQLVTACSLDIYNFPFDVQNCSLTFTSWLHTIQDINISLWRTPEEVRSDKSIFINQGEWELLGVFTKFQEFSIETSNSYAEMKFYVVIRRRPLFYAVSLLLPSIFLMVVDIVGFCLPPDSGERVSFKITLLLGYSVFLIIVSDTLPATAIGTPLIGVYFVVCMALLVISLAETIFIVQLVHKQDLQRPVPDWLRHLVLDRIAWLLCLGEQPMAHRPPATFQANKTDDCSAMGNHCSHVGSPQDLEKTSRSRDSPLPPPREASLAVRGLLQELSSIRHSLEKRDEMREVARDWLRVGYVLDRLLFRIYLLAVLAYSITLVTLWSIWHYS
T1 sequence (Q9JJ16 whole entry): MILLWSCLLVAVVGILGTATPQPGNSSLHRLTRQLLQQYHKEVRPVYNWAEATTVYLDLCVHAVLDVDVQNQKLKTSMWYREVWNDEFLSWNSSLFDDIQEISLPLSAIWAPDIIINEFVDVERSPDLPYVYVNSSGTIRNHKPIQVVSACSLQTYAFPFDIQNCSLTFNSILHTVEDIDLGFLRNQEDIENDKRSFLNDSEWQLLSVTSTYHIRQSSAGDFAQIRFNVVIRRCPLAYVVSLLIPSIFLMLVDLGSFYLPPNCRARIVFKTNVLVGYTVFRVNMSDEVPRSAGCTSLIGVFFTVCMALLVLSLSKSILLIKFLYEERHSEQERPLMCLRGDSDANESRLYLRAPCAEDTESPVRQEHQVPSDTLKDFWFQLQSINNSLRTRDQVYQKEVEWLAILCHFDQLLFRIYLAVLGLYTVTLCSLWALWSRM

[2] = biological target: T1, Serotonin 3 (5-HT3) receptor; assay: Inhibitory activity against 5-hydroxytryptamine 3 receptor in rat cortical membranes using [3H]- 1-Methyl-1H-indazole-3-carboxylic acid (8-methyl-8-aza-bicyclo[3.2.1]oct-3-yl)-amide as a radioligand; assay type: cell membranes
[3] = biological target: 5-hydroxytryptamine receptor 1B (Rattus norvegicus, UniProt P28564); assay: Inhibitory activity against 5-hydroxytryptamine 1B receptor in rat cortical membranes using [3H]5-HT as a radioligand; assay type: cell membranes
Chain of 5-hydroxytryptamine receptor 1B (P28564 whole entry): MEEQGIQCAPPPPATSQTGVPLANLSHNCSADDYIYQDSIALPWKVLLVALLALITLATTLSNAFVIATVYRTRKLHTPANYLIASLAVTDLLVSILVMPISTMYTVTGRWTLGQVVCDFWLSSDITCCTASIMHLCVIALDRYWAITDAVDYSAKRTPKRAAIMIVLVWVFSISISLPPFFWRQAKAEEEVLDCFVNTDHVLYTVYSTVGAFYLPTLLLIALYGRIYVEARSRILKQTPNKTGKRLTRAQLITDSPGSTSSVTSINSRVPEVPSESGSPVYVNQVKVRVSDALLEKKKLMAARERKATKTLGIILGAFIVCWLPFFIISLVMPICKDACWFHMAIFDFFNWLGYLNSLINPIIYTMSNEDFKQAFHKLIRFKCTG

[4] = test system: Rattus norvegicus; assay: Effective dose required to reduce von benzold jarisch reflex response to 5-HT was determined; Value ranges from 10-30 ug/Kg; assay type: functional
[5] = biological target: T2, 5-hydroxytryptamine receptor 1A (Rattus norvegicus, UniProt P19327); assay: Inhibitory activity against 5-hydroxytryptamine 1A receptor in rat cortical membranes using [3H]8-OH-DPAT as a radioligand; assay type: cell membranes
T2 sequence (P19327 whole entry): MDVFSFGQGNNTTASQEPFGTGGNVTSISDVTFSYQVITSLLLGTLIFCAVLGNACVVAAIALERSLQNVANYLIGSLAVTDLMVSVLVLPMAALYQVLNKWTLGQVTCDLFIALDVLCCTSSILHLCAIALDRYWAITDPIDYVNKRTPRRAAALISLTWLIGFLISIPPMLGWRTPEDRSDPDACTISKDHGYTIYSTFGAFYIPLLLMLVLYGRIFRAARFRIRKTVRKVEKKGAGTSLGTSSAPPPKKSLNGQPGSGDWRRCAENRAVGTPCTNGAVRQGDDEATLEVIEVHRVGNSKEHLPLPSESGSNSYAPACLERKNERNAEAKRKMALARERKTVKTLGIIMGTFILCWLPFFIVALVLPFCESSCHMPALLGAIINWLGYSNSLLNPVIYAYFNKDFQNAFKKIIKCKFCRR

[6] = test system: Rattus norvegicus; assay: Percentage inhibition 5-HT- mediated bradycardia in rat after 3 ug/Kg of compound administered intravenously; assay type: functional

Row | SMILES | Ki [1] [nM] | Ki [2] [nM] | Ki [3] [nM] | ED50 [4] [mg/kg] | Ki [5] [nM] | Inhibition [6] [%]
1 | CN1C2CCC1CC(NC(=O)c1n[nH]c3ccccc13)C2 (stereo not drawn) | 4.27 | 4.26 |  |  |  | 
2 | CN1C2CCC1CC(NC(=O)c1c3ccccc3nn1C)C2 (stereo not drawn) | 1050 | 1050 |  |  |  | 
3 | CN1[C@@H]2CC[C@H]1C[C@@H](OC(=O)c1cc(Cl)cc(Cl)c1)C2 [BEMESETRON] | 25.7 | 26 |  |  |  | 
4 | CN1C2CCCC1CC(NC(=O)c1nn(C)c3ccccc13)C2 (stereo not drawn) [GRANISETRON] |  |  | > 1000 | 0.01 | > 1000 | 
5 | CCN(CC)CCNC(=O)c1cc(Cl)c(N)cc1OC [METOCLOPRAMIDE] | 501 | 502 |  |  |  | 
6 | c1ccc2nc(N3CCNCC3)ccc2c1 [QUIPAZINE] | 3.02 | 3.04 |  |  |  | 
7 | CN1[C@@H]2CC[C@H]1C[C@@H](OC(=O)c1c[nH]c3ccccc13)C2 [TROPISETRON] | 1.29 | 1.28 |  |  |  | 66
8 | COc1cc(N)c(Cl)cc1C(=O)NC1CN2CCC1CC2 (stereo not drawn) [ZACOPRIDE] | 0.417 | 0.42 |  |  |  | 

— ChEMBL document CHEMBL1125072, “Synthesis and biochemical evaluation of tritium-labeled 1-methyl-N-(8-methyl-8-azabicyclo[3.2.1]oct-3-yl)-1H-indazole-3-carboxa mide, a useful radioligand for 5HT3 receptors” (J Med Chem, 1990)
